“Also recorded” adds a separate entry of the source. Where no end group is shown, it is not given here.
Key:
[1] = test system: C2C12 myoblasts; assay: MTT cell viability assay in C2C12 myoblasts; settings: for Effect: viability (hit direction): screening at 1 μM, hit selection by MAD/quartile/SSMD/robust SSMD
Experimental: The mouse myoblast C2C12 cell line (ATCC, CRL-1772) was cultured at 37° C. in a 5% CO2 humidified incubator in Dulbecco's modified Eagle medium (DMEM; Thermo Fisher Scientific). For C2C12 cell proliferation, the medium was supplemented with 10% fetal bovine serum (FBS; Thermo Fisher Scientific), 100 units/ml penicillin, and 100 μg/ml streptomycin (1% Pen/Strep; Thermo Fisher Scientific). The proliferation medium was renewed each 2-3 days and confluency was kept below 80%. For differentiation of the C2C12 myoblasts into myotubes, proliferation medium was replaced by differentiation medium when cells reached 80% confluency.
Viability of QSM was assessed using the 3-(4,5-dimethylthiazol-2-yl)-2,5-diphenyltetrazolium bromide (MTT) assay. Briefly, C2C12 myoblasts were seeded in a 96-well plate (3×10^4 cells/well). 24 hours post-seeding, the wells were treated with QSM (1 μM), placebo or positive control (DMSO 2%) and incubated for 24 hours at 37° C. Next, 20 μL of MTT reagent (5 mg/mL; Sigma-Aldrich) was added to each well and the plates were returned to the incubator for 2.5 hours. After incubation, supernatant was removed from the wells and 150 μL of DMSO was added to release and dissolve the formazan crystals. Absorbance was measured at 570 nm using a microplate reader (Thermo Fisher).
The MTT assay is a widely validated and accepted viability assay for screening experiments. In this assay, the reduction of MTT into formazan, catalysed by living cell enzymes, is used as a marker of cell viability. If QSM are cytotoxic or cytostatic towards C2C12 cells, a decrease in MTT reduction is expected (viability less than 100%), while an increased C2C12 proliferation caused by QSM will result in an increased MTT reduction (viability more than 100%).
In a further set of experiments, the dose response effect of QSPs Q22 and Q184 was assessed on MTT reduction of C2C12 myotubes (tables 7.4 and 7.5).

[2] = test system: C2C12 cells; assay: Co-treatment of C2C12 cells with QSP and ala-scan derivative, IL-6 response; format: cell-based, mouse; settings: for effect on Q055 mediated IL-6 induction: Q055 75 μM plus derivative 90 μM
Description: Means±SEM, n=6. * P<0.05; ** P<0.01, *** P<0.001; paired Student's t test.

[3] = test system: GDF15 production by C2C12 myotubes; assay: GDF15 production by C2C12 myotubes (sandwich ELISA), mitochondrial changes; format: cell-based, mouse; settings: for GDF15 secretion, effect relative to median: QSM 1 μM, C2C12 myotubes; for Effect: GDF15 (hit direction): screening at 1 μM
Experimental: GDF15 levels were determined in the supernatants of C2C12 cells after QSM, placebo or positive control (oligomyin) treatment, using a sandwich ELISA (R&D Systems). A similar protocol as described for the IL-6 determination was used.
GDF15 is considered a useful biomarker for direct or indirect changes in mitochondrial function. Moreover, GDF15 is implicated in muscle wasting diseases like sarcopenia, chronic obstructive pulmonary disease cachexia and critical illness.

[4] = test system: C2C12 myoblasts; assay: Differentiation of C2C12 myoblasts into myotubes (LADD stain, ImageJ); format: cell-based, mouse; settings: for Effect: differentiation (hit direction): screening at 1 μM, myotube formation; for differentiation capacity relative to the median of all samples: QSM 1 μM at d0 and d3, myotube formation at d6
Experimental: Differentiation medium consisted of DMEM supplemented with 2% horse serum (HS; Thermo Fisher Scientific) and 1% Pen/Strep. All experiments were done with C2C12 passage numbers below 30.
C2C12 myoblasts (1×10^4 cells/well) were seeded in 48-well plates and incubated until they reached 80% confluency, after which the proliferation medium was removed and replaced by differentiation medium (d0). The differentiation medium was renewed at d3. QSM (1 μM), placebo or positive controls (vitamin D3) were added to the cells together with the differentiation medium at d0 and d3. After 6 days of incubation (d6), myotubes were stained with the combined nuclear and cytoplasmatic LADD Multiple Stain (as described in R. McColl, M. Nkosi, C. Snyman, C. Niesler, Analysis and quantification of in vitro myoblast fusion using the LADD Multiple Stain, Biotechniques 61(6) (2016) 323-326). LADD Multiple Stain is a solution containing toluidine blue (VWR) and basic fuchsin (Fluka) in 30% (v/v) ethanol. The stained myotubes were assessed under a phase-contrast microscope equipped with a camera (Olympus CKX53) at a total magnification of 100×. Five different images were taken per well. The amount of myotube formation was automatically quantified using ImageJ software.
Mimicking the in vivo muscle physiology, C2C12 myoblasts are able to differentiate into myotubes when they are adjacent to each other and a differentiating extracellular medium is present. Muscle wasting diseases are characterized by a decreased myotube formation. To evaluate the effects of QSM on the differentiation capacities of C2C12 myoblasts, the C2C12 cells were treated in differentiation medium with QSM at d0 and d3, and evaluated the myotube formation at d6. At d6, the staining protocol of McColl et al. was used to visualize the myotubes (references see above). The differentiation capacity of all QSM was between 71% (Q013) and 145% (AI-2) relative to the median of all samples (FIG. 1).

[5] = test system: human muscle cells; assay: IL-6 production dose response in human muscle cells; format: cell-based; settings: FIG. 12
Experimental: Differentiation medium consisted of high glucose Glutamax DMEM supplemented with penicillin (100 units/ml), streptomycin (100 μg/ml) and insulin (10 μg/mL).
Using similar methods as described for the C2C12 experiments, a number of QSPs were tested for a dose response relation in human muscle cells.

[6] = test system: IL-6 production by C2C12 myotubes; assay: IL-6 production by C2C12 myotubes (sandwich ELISA); format: cell-based, mouse; settings: for Effect: inflammation (IL-6 production, hit direction): screening at 1 μM
Experimental: C2C12 myoblasts (2.5×10^4 cells/well) were seeded in 96-well plates and incubated until they reached 80% confluency, after which the proliferation medium was removed and replaced by differentiation medium. After 6 days of incubation with daily renewed differentiation medium, the cells were treated with 1 μM of QSM, placebo or positive control (LPS) for 24 hours. IL-6 levels were determined in the supernatants using a sandwich ELISA (eBioscience), using IL-6 capture antibody, blocking solution, samples and standards, IL-6 detection antibody, avidin-horseradish peroxidase and substrate solution which were added sequentially, with washing steps in between. After stopping the reaction with H2SO4 solution, the absorbance was measured at 450 nm and 570 nm (correction wavelength) using a microplate reader (ThermoLab Systems). Concentrations were determined using the standard curves generated with known concentrations of IL-6.
Several pro-inflammatory cytokines are elevated in sepsis, cancer, ageing and other catabolic diseases. They are thought to trigger muscle wasting (partly) through NF-kB pathways. […] In these screening experiments, the effects of QSM on myotube IL-6 production were assessed using a sandwich ELISA.
In a further set of experiments, using similar methods as described for the screening experiments, a number of QSPs were tested for a dose response relation in C2C12 cells.

[7] = test system: C. elegans; assay: C. elegans swimming behaviour (muscle wasting/aging model); format: in vivo; set-up: key to Wave initiation rate / Asymmetry / Stretch / Curling / Travel speed / Brush stroke / Activity index: relative to placebo set to 1.0; settings: DMSO positive control
Description: The C. elegans model is a well-established aging model: they diminish in locomotory vigor as they age, a phenomenon that is attributed to a physical deterioration of muscle and synapses. QSPs were introduced in the medium of living C. elegans. As comparisons, a placebo experiment was used as negative control, while DMSO was used as positive control.
Using automatic, objective imaging software, different swimming behaviour variables associated with this decrease in locomotory vigor or muscle wasting were investigated. Wave initiation rate, travel speed, brush stroke and activity index do decrease with muscle wasting, while body wave number, asymmetry, curling and stretch do increase with muscle wasting, as described in Restif et al., Plos Computational Biology, 2014.
More in particular, the results in these tables show Q184-associated changes in three swimming parameters in wild-type adults at day 3 (Table 9) and day 12 (Table 10) (n=120-170 from 3 independent trials for each condition). Data presented are means±s.e.m (placebo set to 1.0).

[8] = day 3, placebo set to 1.0, Q184 at 1 μM
[9] = day 12, placebo set to 1.0, Q184 at 1 μM

Compound: LFSLVLAG [Q132]
- Effect: viability (hit direction) [1]: decreasing viability hits

Compound: ESRVSRIIADFLFQRKK (Synthetic QSP055-A9)
- effect on Q055 mediated IL-6 induction [2]: antagonistic effect

Compound: GKAEF [Q099]
- GDF15 secretion, effect relative to median [3]: 80%
- Effect: GDF15 (hit direction) [3]: decreased the GDF15 production

Compound: NNWNN [Q019]
- Effect: differentiation (hit direction) [4]: increased myotube formation; also recorded: ↑ differentiation

Compound: AIFILAS [Q013]
- differentiation capacity relative to the median of all samples [4]: 71%

Compound: DSVCASYF [Q040]
- Effect: viability (hit direction) [1]: decreasing viability hits

Compound: AKDEH [Q015]
- Effect: viability (hit direction) [1]: decreasing viability hits
- Effect: GDF15 (hit direction) [3]: increased GDF15 production

Compound: ALILTLVS [Q017]
- Effect: viability (hit direction) [1]: decreasing viability hits

Compound: ESRVSRIILDFLFQRKK [Q055]
- dose response relation, IL6 production [5]: Typical curves were obtained
- Relative IL-6 ([6]; concentration 0.20 μM): 0.94
- Relative IL-6 ([6]; concentration 0.39 μM): 1.07
- Relative IL-6 ([6]; concentration 1.56 μM): 0.93
- Relative IL-6 ([6]; concentration 3.13 μM): 1.24
- Relative IL-6 ([6]; concentration 6.25 μM): 1.24
- Relative IL-6 ([6]; concentration 12.5 μM): 3.60
- Relative IL-6 ([6]; concentration 25 μM): 5.56
- Relative IL-6 ([6]; concentration 50 μM): 8.94
- Relative IL-6 ([6]; concentration 100 μM): 6.48
- Effect: inflammation (IL-6 production, hit direction) [6]: increased IL-6 production; also recorded: ↑ inflammation

Compound: CCCCCC(=O)N[C@H]1CCOC1=O [C6-HSL]
- Effect: GDF15 (hit direction) [3]: increased GDF15 production

Compound: SRNAT [Q192, SRNAT]
- viability relative to the median of all samples (MTT) ([1]; QSM 1 μM, 24 h, C2C12 myoblasts, n=2): 120%
- Effect: viability (hit direction) [1]: strong increasing hit; also recorded: ↑ viability

Compound: QNSPNIFGQWM [Q097]
- Effect: viability (hit direction) [1]: decreasing viability hits

Compound: C[S+](C)[O-] [DMSO, dimethylsulfoxide, reference compound]
- Activity index [7, 8]: 0.60
- Asymmetry [7, 8]: 3.11
- Body wave number [7, 8]: 2.04
- Brush stroke [7, 8]: 0.68
- Curling [7, 8]: 1.55
- Stretch [7, 8]: 1.10
- Travel speed [7, 8]: 0.85
- Wave initiation rate [7, 8]: 0.58
- Activity index [7, 9]: 0.31
- Asymmetry [7, 9]: 2.50
- Body wave number [7, 9]: 2.59
- Brush stroke [7, 9]: 0.48
- Curling [7, 9]: 0.08
- Stretch [7, 9]: 0.91
- Travel speed [7, 9]: 0.49
- Wave initiation rate [7, 9]: 0.39

Compound: SRVSAIILDFLFQRKK (Synthetic Q055-A6)
- effect on Q055 mediated IL-6 induction [2]: inhibited the Q055 mediated IL-6 induction

Compound: ESRLPKIRFDFIFPRKK [Q054]
- relative IL-6 production ([6]; QSM 1 μM, 24 h, relative to median of all QSM): 51%
- Effect: inflammation (IL-6 production, hit direction) [6]: decreased the IL-6 production; also recorded: ↓ inflammation

Compound: MKAEH [Q140]
- Effect: viability (hit direction) [1]: increasing hits; also recorded: ↑ viability

Compound: GSLSTFFALFNRSFTQALGK (Synthetic Q176-A9)
- effect on Q176 mediated IL-6 induction ([2]; Q176 50 μM plus derivative 60 μM): inhibiting the Q176 mediated IL-6 induction

Compound: YSTCDFIM [Q148]
- GDF15 secretion, effect relative to median [3]: 80%

Compound: LPFEF [Q134]
- Effect: viability (hit direction) [1]: decreasing viability hits

Compound: ERPVG [Q052]
- Effect: viability (hit direction) [1]: increasing hits; also recorded: increasing viability hit
- Effect: inflammation (IL-6 production, hit direction) [6]: decreased the IL-6 production; also recorded: ↓ inflammation

Compound: C[C@]12OC[C@H](O)[C@@]1(O)O[B-](O)(O)O2 [AI-2]
- Effect: viability (hit direction) [1]: increasing both C2C12 viability and GDF15 production
- GDF15 secretion, effect relative to median [3]: 216%
- Effect: GDF15 (hit direction) [3]: increased GDF15 production
- differentiation capacity relative to the median of all samples [4]: 145%
- Effect: differentiation (hit direction) [4]: increased myotube formation; also recorded: ↑ differentiation

Compound: DLRGVPNPWGWIFGR [Q030]
- Effect: viability (hit direction) [1]: decreasing viability hits

Compound: SDLPFEH [Q164]
- Effect: viability (hit direction) [1]: increasing hits; also recorded: ↑ viability

Compound: YSPWTNF [Q007]
- Effect: inflammation (IL-6 production, hit direction) [6]: increased IL-6 production; also recorded: ↑ inflammation

Compound: MAGNSSNFIHKIKQIFTHR [Q138]
- Effect: viability (hit direction) [1]: increasing hits; also recorded: ↑ viability

Compound: AGTKPQGKPASNLVECVFSLFKKCN [Q011]
- Effect: viability (hit direction) [1]: decreasing viability hits
- Effect: GDF15 (hit direction) [3]: increased GDF15 production

Compound: FLVMFLSG [Q093]
- GDF15 secretion, effect relative to median [3]: 137%
- Effect: GDF15 (hit direction) [3]: increased GDF15 production

Compound: CCCC(O)CC(=O)N[C@H]1CCOC1=O (stereo partly shown) [3-OH-C6-HSL]
- Effect: viability (hit direction) [1]: increasing hit; also recorded: ↑ viability

Compound: ARNQT [Q018]
- Effect: viability (hit direction) [1]: decreasing viability hits

Compound: DLRNIFLKIKFKKK [Q031]
- Effect: viability (hit direction) [1]: decreasing viability hits

Compound: GLWEDILYSLNIIKHNNTKGLHHPIQL [Q101]
- Effect: viability (hit direction) [1]: increasing hits; also recorded: ↑ viability

From US20230218714A1, “DIAGNOSTICS AND USE OF QUORUM SENSING MOLECULES IN MUSCLE WASTING” (Universiteit Gent, priority 2019, published 2023)
